Consider 21 molecules from ChEMBL document CHEMBL5247574, “Recent Progress on Bile Acid Receptor Modulators for Treatment of Metabolic Diseases” (J Med Chem, 2016).

pEC50, pIC50: −log10 of the molar value. In brackets after ≈: the same amount, converted by molar mass.

For data set [1], the target named is T1, Bile acid receptor (Homo sapiens, UniProt Q96RI1).
T1 sequence (Q96RI1 whole entry): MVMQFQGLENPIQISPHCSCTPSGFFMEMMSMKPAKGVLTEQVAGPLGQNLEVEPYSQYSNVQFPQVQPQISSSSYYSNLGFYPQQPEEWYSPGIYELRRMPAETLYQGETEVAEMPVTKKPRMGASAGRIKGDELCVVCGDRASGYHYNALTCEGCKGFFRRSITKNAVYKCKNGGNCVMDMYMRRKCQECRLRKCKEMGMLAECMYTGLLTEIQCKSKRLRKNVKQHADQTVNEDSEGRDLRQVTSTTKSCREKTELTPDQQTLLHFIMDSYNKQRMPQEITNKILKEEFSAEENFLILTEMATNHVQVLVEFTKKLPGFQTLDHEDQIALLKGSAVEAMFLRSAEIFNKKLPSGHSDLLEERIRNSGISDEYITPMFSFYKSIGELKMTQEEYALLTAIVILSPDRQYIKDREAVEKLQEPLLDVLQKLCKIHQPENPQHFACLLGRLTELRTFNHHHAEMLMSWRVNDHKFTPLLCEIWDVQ
Put plainly: Agonist activity at human GST-tagged FXR LBD (193 to 472 residues) by FRET assay.

Data set [2] addresses T2, G-protein coupled bile acid receptor 1 (Homo sapiens) (UniProt Q8TDU6).
T2 sequence (whole entry): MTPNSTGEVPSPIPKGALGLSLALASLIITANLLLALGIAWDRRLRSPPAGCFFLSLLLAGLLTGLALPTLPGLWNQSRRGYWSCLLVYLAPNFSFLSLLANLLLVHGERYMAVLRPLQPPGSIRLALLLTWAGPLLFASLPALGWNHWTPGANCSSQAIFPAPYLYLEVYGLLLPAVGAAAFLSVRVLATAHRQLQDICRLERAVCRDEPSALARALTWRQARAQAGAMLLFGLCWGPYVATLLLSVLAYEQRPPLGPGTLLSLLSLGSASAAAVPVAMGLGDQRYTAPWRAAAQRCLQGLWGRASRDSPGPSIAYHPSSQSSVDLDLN
Put plainly: Agonist activity at human TGR5 transfected in CHO cells assessed as increase in cAMP production at 100 nM relative to control. Format: cell-based. As to conditions: filed as agonist. (In general: Cyclic AMP is a second messenger, typically raised through Gs and lowered through Gi signalling.)

The target in data set [3] is T3, G-protein coupled bile acid receptor 1 (Mus musculus) (UniProt Q80SS6).
T3 sequence (whole entry): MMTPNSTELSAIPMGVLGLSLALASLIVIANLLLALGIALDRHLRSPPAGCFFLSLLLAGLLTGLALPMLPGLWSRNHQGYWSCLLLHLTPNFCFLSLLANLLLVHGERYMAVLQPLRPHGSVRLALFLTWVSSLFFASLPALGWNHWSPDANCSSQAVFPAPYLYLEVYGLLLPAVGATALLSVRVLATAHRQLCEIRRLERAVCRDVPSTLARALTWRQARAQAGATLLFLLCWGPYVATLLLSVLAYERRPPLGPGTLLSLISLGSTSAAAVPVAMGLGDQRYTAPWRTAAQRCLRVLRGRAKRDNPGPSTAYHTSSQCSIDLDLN
Put plainly: In vivo agonist activity at TGR5 in C57/Bl6 mouse assessed as increase in GLP-1 secretion at 30 mg/kg, po relative to control. The format is functional, organism-based.

Data set [4] addresses T4, G-protein coupled bile acid receptor 1 (Homo sapiens, UniProt Q8TDU6).
T4 sequence (Q8TDU6 whole entry): T2 sequence (whole entry)
Briefly: Agonist activity at human TGR5 transfected in CHO cells assessed as increase in cAMP production. The format is cell-based.

Data set [5] can be described thus: Clearance in human liver microsomes. The format is ADME, Microsome.
A short description of data set [6]: Aqueous solubility of compound. The settings on record: buffer. Format: physicochemical.
Data set [7] can be described thus: Clearance in mouse liver microsomes. Format: ADME, Microsome. For orientation: Liver microsomes are vesicles of endoplasmic reticulum, rich in cytochrome P450 enzymes.
Data set [8] deals with T5, G-protein coupled bile acid receptor 1 (Mus musculus, UniProt Q80SS6).
T5 sequence (Q80SS6 whole entry): T3 sequence (whole entry)
Briefly: Agonist activity at mouse TGR5.

Data set [9] addresses T6, Bile acid receptor (Homo sapiens) (UniProt Q96RI1).
T6 sequence (whole entry): T1 sequence (Q96RI1 whole entry)
Put plainly: Agonist activity at FXR (unknown origin) by alphascreen assay. The settings on record: filed as agonist. On the technique in general: In Alpha technology, singlet oxygen from a donor bead excites a nearby acceptor bead.

Data set [10] has as its target T7, G-protein coupled bile acid receptor 1 (Rattus norvegicus) (UniProt Q80T02).
T7 sequence (whole entry): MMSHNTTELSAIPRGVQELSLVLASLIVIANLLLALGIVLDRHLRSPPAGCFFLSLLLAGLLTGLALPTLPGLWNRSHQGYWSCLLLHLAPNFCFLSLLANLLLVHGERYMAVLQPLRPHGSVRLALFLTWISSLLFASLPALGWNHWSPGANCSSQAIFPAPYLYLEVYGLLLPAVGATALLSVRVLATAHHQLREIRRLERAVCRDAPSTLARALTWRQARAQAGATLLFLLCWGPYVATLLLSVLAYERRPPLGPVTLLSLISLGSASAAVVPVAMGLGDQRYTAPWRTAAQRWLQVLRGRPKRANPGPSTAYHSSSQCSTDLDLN
Put plainly: Agonist activity at TGR5 in rat Primary intestinal cell assessed as stimulation of GLP-1 secretion at 30 uM relative to control. Format: cell-based. As to conditions: filed as agonist.

Data set [11] addresses T4, G-protein coupled bile acid receptor 1. Put plainly: Agonist activity at human TGR5 transfected in CHO-K1 cells assessed as increase in cAMP production. The format is cell-based.
In data set [12] the target is T2, G-protein coupled bile acid receptor 1 (Homo sapiens). Put plainly: Agonist activity at human TGR5 expressed in human HEK293 cells at 20 uM measured after 5.5 hrs by steady-glo luciferase assay relative to control. Format: cell-based. As to conditions: filed as agonist.
The target in data set [13] is T4, G-protein coupled bile acid receptor 1. Put plainly: Agonist activity at human TGR5 expressed in human HEK293 cells measured after 5.5 hrs by steady-glo luciferase assay. Format: cell-based.
For data set [14], the target named is T2, G-protein coupled bile acid receptor 1 (Homo sapiens). Put plainly: Agonist activity at human TGR5 transfected in CHO cells assessed as increase in cAMP production at 1 uM relative to control. Format: cell-based. As to conditions: filed as agonist.
Data set [15] has as its target T4, G-protein coupled bile acid receptor 1. Briefly: Agonist activity at TGR5 in human HEK293 cells assessed as increase in cAMP production. The format is cell-based.
The target is the same in data set [16]. Briefly: Agonist activity at human TGR5. As to conditions: read-out: EC50.
In data set [17] the target is T1, Bile acid receptor. Put plainly: Antagonist activity at FXR in human HepG2 cells in presence of CDCA by luciferase reporter assay. Format: cell-based.
[18] abbreviates: liver microsomes, read-out: CLH.

The pEC50 is the negative decadic logarithm of the EC50, by convention in mol/L. Consider `O=C(O)c1ccc2cc(N3C4CCC3CC(OCc3c(-c5ccccc5OC(F)(F)F)noc3C3CC3)C4)ccc2c1` (stereo unspecified), for which, in data set [1], the pEC50 was 9.00.
Consider `COc1ccc(C(C)(C)c2cnc(SCCNCc3cccnc3)n2-c2ccc(F)cc2)cc1OC`, for which the Activity in data set [2] stood at 129%; in [3] it was 320%.
Regarding `Cc1cc(/C(C[C@H](c2ccc(C3C[C@@H]4C(C(=O)O)[C@@H]4C3)cc2)c2ccc(F)cc2F)=N\O)ccn1` (stereo partly specified), in data set [4], the pEC50 was 9.00.
The solubility is the dissolved amount per volume that the medium holds. High values mean much dissolved substance, low ones little dissolved substance. Regarding `O=C(c1cccnc1Oc1cc(Cl)ccc1Cl)N1CCCc2ccccc21`, the CLH in [5] (microsomes) was 1418 mL/min/g; in data set [7] (microsomes) it was 2134 mL/min/g. The molecule further yielded a solubility in data set [6] below 1 µg/mL. Besides, the pEC50 in [8] is 5.59.
Take `CC[C@H]1[C@@H](O)C2C3CC[C@H](C(C)CCOS(=O)(=O)O)[C@@]3(C)CCC2[C@@]2(C)CC[C@@H](O)C[C@@H]12` (stereo partly specified): the Activity in data set [9] worked out at 30 nM.
On to `CN1CC(C)(C)N(C(=O)COc2cccc3cnccc23)c2ccc(F)cc21`, for which the Activity in data set [10] turned out to be 251%.
For `Cc1c(Cl)cccc1OCCCC(=O)N1CCC(Cc2cccc(C(=O)NCCS(=O)(=O)O)c2)c2ccccc21` (stereo unspecified), the pEC50 in data set [11] was 7.62.
For the molecule `Fc1ccccc1-c1ccncc1CN1C(c2ccco2)=NOC1c1cc(C(F)(F)F)cc(C(F)(F)F)c1Cl` (stereo unspecified), in [12], the Activity turned out to be 90%. The same molecule had a pEC50 in [13] of 8.25.
On to `COc1ccc(C(C)(C)c2nnc(SCCOc3ccc(-n4cnc(-c5ccsc5)c4)cc3)n2-c2ccc(F)cc2)cc1OC`, for which the Activity in data set [2] was 147%.
Turning to `O=C(c1cc(C(F)(F)F)cc(C(F)(F)F)c1)N1CCOc2nccc(-c3ccccc3)c2C1`, in [14], the Activity came to 100%.
In data set [12], `Fc1ccccc1-c1ccncc1CN1C(c2ccccc2)=NOC1c1cc(C(F)(F)F)cc(C(F)(F)F)c1` (stereo unspecified) came in with an Activity of 93%. Moreover, the negative logarithm of the EC50 (pEC50) in data set [13] is 7.10.
For the molecule `O=C(O)c1ccc2nc(N3CCC(OCc4c([C@H]5CCCC[C@@H]5C(F)(F)F)noc4C4CC4)CC3)sc2c1` (stereo in doubt; form 1), the pEC50 in [1] is 7.19.
In the case of `N#Cc1cc(F)ccc1N(C(=O)COc1cccc2cnccc12)c1ccc(F)cc1Cl`, the pEC50 in [15] is 5.13.
For `FC(F)(F)c1ccc(CNCc2cc3ccsc3nc2-c2ccsc2)cc1`, the pEC50 in data set [15] is above 5.00.
For `COc1ccc(C(C)(C)c2cnc(SCCOc3c(F)cccc3Cl)n2-c2ccc(F)cc2)cc1OC`, the Activity in [2] turned out to be 97%.
On to `Cc1ccccc1[C@H](C/C(=N/O)c1ccc(=O)n(C)n1)c1ccc(Br)cc1`, for which the pEC50 in [4] is 8.22.
As for `Cc1c(Cl)cccc1OCCCC(=O)N1CCCc2c(-c3cnn(Cc4c(F)cc(C(=O)NCCS(=O)(=O)O)cc4Cl)c3)cccc21`, in data set [11], the pEC50 is 7.64.
As to `O=C(c1cccnc1Oc1cc(Cl)ccc1Cl)N1CCN(C2COC2)c2ccccc21`, the solubility in data set [6] was determined as 14 µg/mL (≈ 30.7 µM).
For `O=c1c2cccnc2nc(-c2cncc(Cl)c2)n1NCc1ccc(Cl)cc1F`, in [15], the pEC50 was above 5.00.
For the molecule `O=C(Nc1nnn[nH]1)c1cc(Cl)c(Oc2ncccc2C(=O)N2CCN(C3CC3)c3ccccc32)cc1Cl`, the microsomal CLint in data set [5] (setting [18]) and in data set [7] (setting [18]) was 56 µL/min/mg in each case. Moreover, the pEC50 is 7.12 in data set [16] and 6.46 in data set [8]. The solubility in [6] is 535 µg/mL (≈ 970 µM).
The pIC50 is −log10 of the IC50, conventionally taken in molar units. For `CC[C@@H](CC[C@@H](C)[C@H]1CCC2=C3CC[C@H]4C(C)=CCC[C@]4(C)C3CC[C@@]21C)C(C)C` (stereo partly specified), in data set [17], the pIC50 was 4.46.
